Measured values taken from the supplement of paper PMC10307832.

Compound: C=CCNC1=C2C[C@@H](C)C[C@H](OC)[C@H](O)[C@@H](C)/C=C(\C)[C@H](OC(N)=O)[C@@H](OC)/C=C\C=C(/C)C(=O)NC(=CC1=O)C2=O [17-AAG]
Experiment: relative viability (nuclei count vs DMSO), 5 days (fraction); higher = more cells survive
Summary of the method: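 Cells of lung cancer lines were placed in 1536-well plates and kept overnight at 37 °C. Pinning then delivered five library-drug doses (not always all listed), spaced by √10, onto plates anchored with vehicle, and the cells were left 5 days without changing medium. One step fixed, permeabilised and stained them with Hoechst, and MetaXpress counted nuclei in 4× images. Viability, as a median over plates, is treated-well nuclei divided by vehicle-well nuclei, with acceptance only at control CV below 25% and at least one doubling.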

| Cell Line | relative viability (0.00128 µM) | relative viability (0.004048 µM) | relative viability (0.0128 µM) | relative viability (0.04048 µM) | relative viability (0.128 µM) |
| --- | --- | --- | --- | --- | --- |
| 201T | 0.953 | 0.976 | 0.936 | 0.425 | 0.316 |
| A-427 | 0.967 | 1.01 | 0.95 | 0.62 | 0.265 |
| ABC-1 | 0.916 | 0.978 | 1.09 | 0.892 | 0.708 |
| BEN | 1.01 | 1.1 | 1.11 | 0.829 | 0.36 |
| CAL-12T | 0.947 | 1.02 | 0.948 | 0.625 | 0.24 |
| COR-L23 | 0.987 | 1.02 | 1.01 | 0.668 | 0.147 |
| COR-L 105 | 0.917 | 0.966 | 1 | 0.488 | 0.547 |
| Calu-6 | 1.02 | 0.984 | 0.946 | 0.3 | 0.148 |
| ChaGo-K-1 | 0.961 | 0.966 | 0.877 | 0.463 | 0.307 |
| EKVX | 1 | 1.02 | 1.05 | 0.261 | 0.229 |
| EMC-BAC-2 | 1.13 | 0.986 | 0.889 | 0.396 | 0.362 |
| EPLC-272H | 1.02 | 0.968 | 0.663 | 0.159 | 0.104 |
| H3255 | 0.995 | 0.973 | 0.948 | 0.313 | 0.243 |
| HARA | 0.952 | 1.12 | 1 | 0.474 | 0.183 |
| HCC-15 | 0.94 | 0.923 | 0.557 | 0.14 | 0.122 |
| HCC-44 | 1 | 0.976 | 0.992 | 0.278 | 0.19 |
| HCC-78 | 0.935 | 1.02 | 1.01 | 0.727 | 0.425 |
| HCC-366 | 1.02 | 1.04 | 0.49 | 0.0512 | 0.0477 |
| HCC-827 | 1.05 | 0.997 | 1.02 | – | 0.77 |
| HOP-62 | 1.03 | 0.881 | 0.904 | 0.436 | 0.126 |
| IA-LM | 0.954 | 0.956 | 0.874 | 0.393 | 0.118 |
| LC-2-ad | 0.943 | 0.974 | 0.793 | 0.27 | 0.19 |
| LCLC-97TM1 | 0.905 | 0.974 | 0.768 | 0.677 | 0.123 |
| LCLC-103H | 1.02 | 1 | 0.957 | 1.04 | 1.07 |
| LK-2 | 1.17 | 1 | 0.816 | 0.519 | 0.159 |
| LOU-NH91 | 0.928 | 0.819 | 0.571 | 0.435 | 0.354 |

| Cell Line | relative viability (0.00128 µM) | relative viability (0.004048 µM) | relative viability (0.0128 µM) | relative viability (0.04048 µM) | relative viability (0.128 µM) |
| --- | --- | --- | --- | --- | --- |
| LU99A | 0.909 | 0.867 | 0.627 | 0.369 | 0.169 |
| LXF-289 | 1.01 | 1 | 0.872 | 0.167 | 0.121 |
| NCI-H23 | 0.949 | 0.851 | 0.289 | 0.177 | 0.147 |
| NCI-H322M | 0.95 | 0.967 | 0.483 | 0.346 | 0.325 |
| NCI-H358 | 0.889 | 0.532 | 0.119 | 0.115 | 0.103 |
| NCI-H441 | 0.857 | 0.693 | 0.223 | 0.192 | 0.105 |
| NCI-H460 | 0.96 | 0.965 | 0.198 | 0.0341 | 0.0297 |
| NCI-H520 | 1.01 | 0.974 | 0.566 | 0.193 | 0.185 |
| NCI-H522 | 0.805 | 1.09 | 0.782 | 0.602 | 0.433 |
| NCI-H596 | 0.931 | 0.917 | 0.955 | 0.816 | 0.404 |
| NCI-H647 | 0.985 | 0.779 | 0.135 | 0.108 | 0.091 |
| NCI-H650 | 0.894 | 1.01 | 0.798 | 0.511 | 0.264 |
| NCI-H661 | 0.937 | 0.998 | 0.953 | 0.549 | 0.295 |
| NCI-H727 | 0.989 | 0.922 | 0.858 | 0.5 | 0.344 |
| NCI-H838 | 1.03 | 0.963 | 0.575 | 0.187 | 0.177 |
| NCI-H1355 | 0.983 | 0.974 | 0.899 | 0.193 | 0.159 |
| NCI-H1395 | 0.79 | 0.818 | 0.648 | 0.388 | 0.342 |
| NCI-H1437 | 1.03 | 0.931 | 0.637 | 0.249 | 0.178 |
| NCI-H1563 | 1.03 | 0.893 | 0.599 | 0.629 | 0.519 |
| NCI-H1648 | 0.888 | 1.08 | 0.839 | 0.673 | 0.59 |
| NCI-H1650 | 0.89 | 0.477 | 0.197 | 0.2 | 0.144 |
| NCI-H1651 | 0.955 | 0.964 | 0.945 | 0.681 | 0.335 |
| NCI-H1666 | 1.01 | 0.913 | 0.723 | 0.47 | 0.364 |
| NCI-H1703 | 0.911 | 0.734 | 0.173 | 0.191 | 0.145 |
| NCI-H1734 | 0.98 | 1.02 | 0.839 | 0.284 | 0.15 |
| NCI-H1755 | 1.01 | 0.943 | 0.897 | 0.433 | 0.238 |

| Cell Line | relative viability (0.00128 µM) | relative viability (0.004048 µM) | relative viability (0.0128 µM) | relative viability (0.04048 µM) | relative viability (0.128 µM) |
| --- | --- | --- | --- | --- | --- |
| NCI-H1792 | 0.888 | 0.772 | 0.347 | 0.165 | 0.181 |
| NCI-H1793 | 0.967 | 0.842 | 0.282 | 0.186 | 0.135 |
| NCI-H1915 | 0.917 | 0.966 | 0.952 | 0.152 | 0.0877 |
| NCI-H1944 | 0.863 | 0.915 | 0.896 | 0.251 | 0.178 |
| NCI-H1975 | 0.909 | 0.889 | 0.372 | 0.16 | 0.167 |
| NCI-H1993 | 0.937 | 0.909 | 0.611 | 0.476 | 0.432 |
| NCI-H2009 | 0.961 | 0.995 | 0.93 | 0.894 | 0.274 |
| NCI-H2023 | 0.919 | 0.724 | 0.122 | 0.0716 | 0.0728 |
| NCI-H2085 | 0.994 | 0.95 | 0.99 | 0.919 | 0.76 |
| NCI-H2087 | 0.984 | 0.767 | 0.16 | 0.177 | 0.134 |
| NCI-H2126 | 1.01 | 0.995 | 0.957 | 0.435 | 0.26 |
| NCI-H2170 | 1.01 | 0.973 | 0.605 | 0.178 | 0.168 |
| NCI-H2228 | 1.08 | 0.72 | 0.125 | 0.112 | 0.152 |
| NCI-H2342 | 0.951 | 1.01 | 1.01 | 0.78 | 0.428 |
| NCI-H2347 | 0.958 | 0.998 | 1.13 | 0.557 | 0.385 |
| NCI-H2405 | 1.02 | 0.957 | 0.663 | 0.251 | 0.236 |
| NCI-H3122 | 0.99 | 0.867 | 0.29 | 0.155 | 0.134 |
| PC-3 [JPC-3] | 1.01 | 1.06 | 1.01 | – | 0.873 |
| PC-14 | 0.967 | 0.742 | 0.398 | 0.108 | 0.0843 |
| RERF-LC-KJ | 1.03 | 1.05 | 0.669 | 0.284 | 0.26 |
| SK-LU-1 | 1.06 | 0.796 | 0.315 | 0.229 | 0.181 |
| SK-MES-1 | 0.966 | 0.86 | 0.45 | 0.181 | 0.159 |
| SW 900 | 0.831 | 0.727 | 0.312 | 0.155 | 0.141 |
| SW 1573 | 0.973 | 0.95 | 0.542 | 0.151 | 0.104 |
| UMC-11 | 0.943 | 1.01 | 0.839 | 0.478 | 0.195 |
